Reference: publication PMC2900928 (Cell, 2010)

How the values were obtained:
BT1754-PD = target: T1, BT1754-PD (Bacteroides thetaiotaomicron, UniProt Q8A6X1); assay: isothermal titration calorimetry; type: binding; details: 20 mM Tris-HCl, pH 8.0; 1:1 stoichiometry, single site
T1 sequence (Q8A6X1 29-343): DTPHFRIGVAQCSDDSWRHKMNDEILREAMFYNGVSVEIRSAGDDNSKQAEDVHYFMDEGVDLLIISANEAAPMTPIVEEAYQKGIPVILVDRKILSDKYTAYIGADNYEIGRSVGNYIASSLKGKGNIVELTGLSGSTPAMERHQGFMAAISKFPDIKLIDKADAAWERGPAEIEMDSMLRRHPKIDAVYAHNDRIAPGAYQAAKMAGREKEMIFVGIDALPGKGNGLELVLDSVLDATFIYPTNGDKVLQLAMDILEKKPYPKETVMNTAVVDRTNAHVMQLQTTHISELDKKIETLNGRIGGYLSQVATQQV

BT3082 = target: T2, BT3082 (Bacteroides thetaiotaomicron, UniProt Q8A373); assay: fructose release; type: biochemical; details: 20 mM Tris-HCl, pH 8.0, 37°C
T2 sequence (Q8A373 21-548): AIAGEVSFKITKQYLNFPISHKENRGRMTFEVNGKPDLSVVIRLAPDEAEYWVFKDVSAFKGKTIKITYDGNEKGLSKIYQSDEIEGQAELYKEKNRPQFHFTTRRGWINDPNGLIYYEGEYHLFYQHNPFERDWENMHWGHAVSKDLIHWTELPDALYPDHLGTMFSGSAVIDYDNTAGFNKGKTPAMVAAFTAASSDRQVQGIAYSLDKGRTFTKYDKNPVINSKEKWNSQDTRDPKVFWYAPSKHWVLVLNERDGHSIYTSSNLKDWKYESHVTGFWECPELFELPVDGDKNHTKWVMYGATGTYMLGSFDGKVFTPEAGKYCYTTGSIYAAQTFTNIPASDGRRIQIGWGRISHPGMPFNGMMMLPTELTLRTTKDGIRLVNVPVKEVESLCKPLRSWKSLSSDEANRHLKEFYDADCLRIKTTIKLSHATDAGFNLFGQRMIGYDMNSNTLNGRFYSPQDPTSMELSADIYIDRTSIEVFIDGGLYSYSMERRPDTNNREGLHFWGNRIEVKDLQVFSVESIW

BT1765 = target: T3, BT1765 (Bacteroides thetaiotaomicron, UniProt Q8A6W1); assay: fructose release; type: biochemical; details: 20 mM Tris-HCl, pH 8.0, 37°C
T3 sequence (Q8A6W1 26-627): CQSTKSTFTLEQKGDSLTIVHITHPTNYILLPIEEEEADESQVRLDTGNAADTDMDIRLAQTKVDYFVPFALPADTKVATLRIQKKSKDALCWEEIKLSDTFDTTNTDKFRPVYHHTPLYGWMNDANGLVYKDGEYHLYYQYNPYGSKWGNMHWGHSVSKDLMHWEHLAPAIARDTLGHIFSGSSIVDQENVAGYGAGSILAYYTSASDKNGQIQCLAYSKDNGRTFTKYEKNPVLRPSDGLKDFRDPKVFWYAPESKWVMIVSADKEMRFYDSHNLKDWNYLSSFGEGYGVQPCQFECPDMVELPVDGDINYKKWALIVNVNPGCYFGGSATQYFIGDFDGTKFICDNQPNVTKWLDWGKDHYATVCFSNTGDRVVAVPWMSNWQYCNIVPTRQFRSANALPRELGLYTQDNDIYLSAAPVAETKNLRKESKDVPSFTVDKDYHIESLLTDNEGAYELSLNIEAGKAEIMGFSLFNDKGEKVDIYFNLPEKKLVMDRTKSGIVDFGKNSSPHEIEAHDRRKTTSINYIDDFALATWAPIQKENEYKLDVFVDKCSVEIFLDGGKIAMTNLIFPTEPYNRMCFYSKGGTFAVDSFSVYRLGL

BT1759 = target: T4, BT1759 (Bacteroides thetaiotaomicron, UniProt Q8A6W7); assay: fructose release; type: biochemical; details: 20 mM Tris-HCl, pH 8.0, 37°C
T4 sequence (Q8A6W7 29-610): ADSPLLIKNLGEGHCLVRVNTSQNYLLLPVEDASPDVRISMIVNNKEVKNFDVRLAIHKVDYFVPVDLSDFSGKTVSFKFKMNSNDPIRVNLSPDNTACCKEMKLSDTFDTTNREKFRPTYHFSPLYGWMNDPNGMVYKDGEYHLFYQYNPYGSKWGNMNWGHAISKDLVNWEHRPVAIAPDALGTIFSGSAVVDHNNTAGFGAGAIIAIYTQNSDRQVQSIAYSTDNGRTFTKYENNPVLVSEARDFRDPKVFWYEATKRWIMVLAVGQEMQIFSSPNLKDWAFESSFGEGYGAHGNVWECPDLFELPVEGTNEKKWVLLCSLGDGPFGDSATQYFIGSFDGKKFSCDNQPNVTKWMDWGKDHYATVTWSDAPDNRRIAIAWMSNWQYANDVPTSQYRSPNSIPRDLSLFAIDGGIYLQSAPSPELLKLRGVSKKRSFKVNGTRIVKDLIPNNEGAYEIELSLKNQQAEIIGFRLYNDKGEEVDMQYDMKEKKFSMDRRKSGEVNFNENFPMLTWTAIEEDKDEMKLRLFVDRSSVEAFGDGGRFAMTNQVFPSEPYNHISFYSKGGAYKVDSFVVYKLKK

| Kd (BT1754-PD) | KM (BT3082) | KM (BT1759) | SMILES | KM (BT1765) |
| --- | --- | --- | --- | --- |
| ~2 µM |  |  | OCC1(O)OC[C@@H](O)[C@@H](O)[C@@H]1O (some centres unmarked) [fructose] |  |
|  | BT1759 and BT3082 also cleave sucrose | BT1759 and BT3082 also cleave sucrose | OC[C@H]1O[C@@](CO)(O[C@H]2O[C@H](CO)[C@@H](O)[C@H](O)[C@H]2O)[C@@H](O)[C@@H]1O [sucrose] | BT1765 prefers sucrose over any of the other oligo- or polysaccharides tested |
|  |  |  | OC[C@H]1O[C@@](CO)(OC[C@H]2OC(O)(CO)[C@@H](O)[C@@H]2O)[C@@H](O)[C@@H]1O (some centres unmarked) [L2, levanbiose] | the enzyme is also able to efficiently degrade levanbiose (Table S2) |
